Laboratory results published in PubChem BioAssay AID2060511 (Molecular Pharmacology Branch, DTP, NCI, 2025).

System: 422866-222-R5-J1-PDC spheroids with HUVEC/MSC, viability
Assay: Anticancer human tumor 422866-222-R5-J1-PDC patient-derived pancreatic adenocarcinoma cell line growth inhibition [GQUAD]
Conditions: for IC50: curve of first compound; for viability, T/C: stronger effect = lower value; active means viability on the fitted dose curve at most 10% of control; inactive means the rest
Procedure, shortened: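 Viability of tumor cells grown as complex spheroids with endothelial and stromal cells, exposed to drug combinations. Top concentration at or near clinical Cmax (else 10 microM), diluted in half-log increments.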

[1] = second compound 0.0316 µM, first compound 0.0316 µM
[2] = second compound 0.0316 µM, first compound 0.1 µM
[3] = second compound 0.0316 µM, first compound 0.316 µM
[4] = second compound 0.0316 µM, first compound 1 µM
[5] = second compound 0.0316 µM, first compound 3.16 µM
[6] = second compound 0.0316 µM, first compound 10 µM
[7] = second compound 0.1 µM, first compound 0.0316 µM
[8] = second compound 0.1 µM, first compound 0.1 µM
[9] = second compound 0.1 µM, first compound 0.316 µM
[10] = second compound 0.1 µM, first compound 1 µM
[11] = second compound 0.1 µM, first compound 3.16 µM
[12] = second compound 0.1 µM, first compound 10 µM
[13] = second compound 0.316 µM, first compound 0.0316 µM
[14] = second compound 0.316 µM, first compound 0.1 µM
[15] = second compound 0.316 µM, first compound 0.316 µM
[16] = second compound 0.316 µM, first compound 1 µM
[17] = second compound 0.316 µM, first compound 3.16 µM
[18] = second compound 0.316 µM, first compound 10 µM
[19] = second compound 1 µM, first compound 0.0316 µM
[20] = second compound 1 µM, first compound 0.1 µM
[21] = second compound 1 µM, first compound 0.316 µM
[22] = second compound 1 µM, first compound 1 µM
[23] = second compound 1 µM, first compound 3.16 µM
[24] = second compound 1 µM, first compound 10 µM
[25] = second compound 3.16 µM, first compound 0.0316 µM
[26] = second compound 3.16 µM, first compound 0.1 µM
[27] = second compound 3.16 µM, first compound 0.316 µM
[28] = second compound 3.16 µM, first compound 1 µM
[29] = second compound 3.16 µM, first compound 3.16 µM
[30] = second compound 3.16 µM, first compound 10 µM
[31] = second compound 10 µM, first compound 0.0316 µM
[32] = second compound 10 µM, first compound 0.1 µM
[33] = second compound 10 µM, first compound 0.316 µM
[34] = second compound 10 µM, first compound 1 µM
[35] = second compound 10 µM, first compound 3.16 µM
[36] = second compound 10 µM, first compound 10 µM
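Further: spheroids exposed to compounds for seven days before reading.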
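Wherever viability, T/C is given: percent viability relative to DMSO vehicle control taken as 100%.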

CC1COCCN1c1cc(C2(S(C)(=N)=O)CC2)nc(-c2ccnc3[nH]ccc23)n1 (stereo unspecified) + CN(C)c1ccc(Nc2c3ccc(NC(=O)CCN4CCCC4)cc3nc3cc(NC(=O)CCN4CCCC4)ccc23)cc1
3.58 µM: IC50 (second compound 3.16 µM)
2.59 µM: IC50 (second compound 0.1 µM)
7.8 µM: IC50 (second compound 0.316 µM)
3.57 µM: IC50 (second compound 0.0316 µM)
3.79 µM: IC50 (second compound 1 µM)
inactive: viability, T/C [1] 97.6% | viability, T/C [2] 99.8% | viability, T/C [3] 97.3% | viability, T/C [4] 88.5% | viability, T/C [5] 51% | viability, T/C [6] 41.1% | viability, T/C [7] 102% | viability, T/C [8] 98.3% | viability, T/C [9] 102% | viability, T/C [10] 78.9% | viability, T/C [11] 44.6% | viability, T/C [12] 37.9% | viability, T/C [13] 92.2% | viability, T/C [14] 86.2% | viability, T/C [15] 88.4% | viability, T/C [16] 81% | viability, T/C [17] 60.3% | viability, T/C [18] 47.1% | viability, T/C [19] 73.7% | viability, T/C [20] 76.6% | viability, T/C [21] 100% | viability, T/C [22] 72.7% | viability, T/C [23] 54.2% | viability, T/C [24] 31.9% | viability, T/C [25] 84.5% | viability, T/C [26] 76.5% | viability, T/C [27] 86% | viability, T/C [28] 72% | viability, T/C [29] 51.4% | viability, T/C [30] 43.5% | viability, T/C [31] 79.5% | viability, T/C [32] 77% | viability, T/C [33] 93% | viability, T/C [34] 73.6% | viability, T/C [35] 61.9% | viability, T/C [36] 41.2%
6.04 µM: IC50 (second compound 10 µM)

COc1ccc([C@@H](O)c2cc(-c3ncnc4cc(N5CCOCC5)ccc34)c(F)cc2Cl)nn1 + Cc1[nH]c2ccc(F)cc2c1-c1nc2c3cccnc3c3ncccc3c2[nH]1
2.63 µM: IC50 (second compound 3.16 µM)
4.47 µM: IC50 (second compound 1 µM)
inactive: viability, T/C [1] 81.2% | viability, T/C [2] 79.2% | viability, T/C [3] 72.2% | viability, T/C [4] 68% | viability, T/C [5] 54.7% | viability, T/C [6] 35.8% | viability, T/C [7] 90.6% | viability, T/C [8] 78.8% | viability, T/C [9] 68.6% | viability, T/C [10] 60.2% | viability, T/C [11] 62.5% | viability, T/C [12] 42.1% | viability, T/C [13] 95.4% | viability, T/C [14] 82.4% | viability, T/C [15] 74.9% | viability, T/C [16] 60.6% | viability, T/C [17] 51.3% | viability, T/C [18] 38.8% | viability, T/C [19] 75.6% | viability, T/C [20] 81.8% | viability, T/C [21] 66.9% | viability, T/C [22] 62.8% | viability, T/C [23] 57.5% | viability, T/C [24] 38.5% | viability, T/C [25] 80.7% | viability, T/C [26] 73% | viability, T/C [27] 65.4% | viability, T/C [28] 64.8% | viability, T/C [29] 45.3% | viability, T/C [30] 34.6% | viability, T/C [31] 64.2% | viability, T/C [32] 69% | viability, T/C [33] 78.5% | viability, T/C [34] 57.1% | viability, T/C [35] 46.2% | viability, T/C [36] 33.9%
3.27 µM: IC50 (second compound 0.316 µM)
4.2 µM: IC50 (second compound 0.0316 µM)
2.13 µM: IC50 (second compound 10 µM)
5.78 µM: IC50 (second compound 0.1 µM)

CC(=O)O[C@H]1C(=O)[C@@]2(C)[C@H]([C@H](OC(=O)c3ccccc3)[C@]3(O)C[C@H](OC(=O)[C@H](O)[C@@H](NC(=O)c4ccccc4)c4ccccc4)C(C)=C1C3(C)C)[C@]1(OC(C)=O)CO[C@@H]1C[C@@H]2O + Cc1cnc(CNC(=O)c2c(=O)c3ccc(N4CCCN(C)CC4)nc3n3c2sc2ccccc23)cn1
> 10 µM: IC50 (second compound 0.0316 µM) | IC50 (second compound 0.1 µM) | IC50 (second compound 0.316 µM) | IC50 (second compound 1 µM) | IC50 (second compound 3.16 µM) | IC50 (second compound 10 µM)
inactive: viability, T/C [1] 81% | viability, T/C [2] 67.2% | viability, T/C [3] 80.3% | viability, T/C [4] 71.9% | viability, T/C [5] 73.8% | viability, T/C [6] 91.6% | viability, T/C [7] 88% | viability, T/C [8] 86.3% | viability, T/C [9] 77.1% | viability, T/C [10] 86.2% | viability, T/C [11] 95.5% | viability, T/C [12] 97.4% | viability, T/C [13] 89.5% | viability, T/C [14] 82.8% | viability, T/C [15] 85.3% | viability, T/C [16] 107% | viability, T/C [17] 115% | viability, T/C [18] 117% | viability, T/C [19] 79.2% | viability, T/C [20] 74.6% | viability, T/C [21] 86.5% | viability, T/C [22] 94.5% | viability, T/C [23] 117% | viability, T/C [24] 119% | viability, T/C [25] 83.3% | viability, T/C [26] 94.5% | viability, T/C [27] 94.1% | viability, T/C [28] 91.7% | viability, T/C [29] 118% | viability, T/C [30] 107% | viability, T/C [31] 80.1% | viability, T/C [32] 78.8% | viability, T/C [33] 71.6% | viability, T/C [34] 101% | viability, T/C [35] 104% | viability, T/C [36] 123%
